Nine compounds from patent US8318928B2, “Fused imidazole carboxamides as TRPV3 modulators” (Glenmark Pharmaceuticals, S.A., priority 2008, dated 2012) can be followed below.

Some results are limits rather than exact numbers.

The target of the test is T1, Human TRPV3 expressing CHO cells (Homo sapiens, UniProt Q8NET8).
T1 construct: expressed in transfected cells; host or cells: CHO cells, kept under G-418 selection
T1 sequence (Q8NET8 1-790): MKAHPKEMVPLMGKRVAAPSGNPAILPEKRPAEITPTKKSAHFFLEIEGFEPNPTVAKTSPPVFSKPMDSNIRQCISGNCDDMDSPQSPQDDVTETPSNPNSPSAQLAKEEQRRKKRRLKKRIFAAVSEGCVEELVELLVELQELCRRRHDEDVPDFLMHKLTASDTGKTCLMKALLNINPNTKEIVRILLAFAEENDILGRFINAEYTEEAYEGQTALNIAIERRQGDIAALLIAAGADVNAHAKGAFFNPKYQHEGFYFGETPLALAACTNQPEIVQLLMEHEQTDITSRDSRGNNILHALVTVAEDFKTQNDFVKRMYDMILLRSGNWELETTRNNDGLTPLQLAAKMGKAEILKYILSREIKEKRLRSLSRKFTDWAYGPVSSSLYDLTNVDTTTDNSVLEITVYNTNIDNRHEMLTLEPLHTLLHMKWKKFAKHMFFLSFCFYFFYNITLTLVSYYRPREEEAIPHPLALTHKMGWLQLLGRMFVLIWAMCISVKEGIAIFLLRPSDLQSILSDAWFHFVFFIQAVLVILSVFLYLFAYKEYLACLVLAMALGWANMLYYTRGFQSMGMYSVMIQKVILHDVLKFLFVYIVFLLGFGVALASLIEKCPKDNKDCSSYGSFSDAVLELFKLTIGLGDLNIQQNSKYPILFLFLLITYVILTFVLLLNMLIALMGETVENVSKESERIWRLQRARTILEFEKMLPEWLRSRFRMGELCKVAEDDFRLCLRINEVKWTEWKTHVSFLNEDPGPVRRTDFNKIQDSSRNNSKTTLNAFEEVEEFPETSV
The test can be described thus: 45Calcium uptake assay: inhibition of 2-APB induced cellular uptake of radioactive calcium. The class given is cell-based. The note with it: 2-APB 500 μM; for IC50: class symbols; for inhibition at 1 µM: read-out: Percentage inhibition at 1.0 μM; for inhibition at 10 µM: read-out: Percentage inhibition at 10.0 μM. From the text:
Certain illustrative compounds within the scope of the present invention are screened for TRPV3 activity according to a modified procedure described in (a) Tóth, A. et al. Life Sciences 2003, 73, 487-498. (b) McNamara C, R. et al. Proc. Natl. Acad. Sci. U.S.A., 2007, 104, 13525-13530. The screening of the compounds may be carried out by other methods and procedures known to persons skilled in the art.
Screening for TRPV3 Antagonist Using the ^45Calcium Uptake Assay
The inhibition of TRPV3 receptor activation was followed as inhibition of 2-aminoethxydiphenylborate (2-APB) induced cellular uptake of radioactive calcium. Test compounds were dissolved in dimethyl sulfoxide (DMSO) to prepare 20 mM stock solution and then diluted using plain medium with DMEM/F-12 containing 1.8 mM CaCl2 to get desired concentration. Final concentration of DMSO in the reaction was 0.5% (v/v). Human TRPV3 expressing CHO cells were grown in DMEM/F-12 medium with 10% FBS, 1% penicillin-streptomycin solution, 400 μg/mL of G-418. Cells were seeded 24 h prior to the assay in 96 well plates so as to get ˜50,000 cells per well on the day of experiment. Cells were treated with test compounds for 10 minutes followed by addition of 2-APB at a final concentration of 500 μM and 5 μCi/mL ^45Ca^+2 for 4 minutes. Cells were washed and lysed using buffer containing 1% Triton X-100, 0.1% deoxycholate and 0.1% SDS. Radioactivity in the lysate was measured in Packardt Top count after addition of liquid scintillant. Concentration response curves were plotted as a % of maximal response obtained in the absence of test antagonist. IC50 value was calculated from concentration response curve by nonlinear regression analysis using GraphPad PRISM software.
Percentage inhibition at concentrations of 1.0 μM and 10.0 μM are given in the table along with IC50 (nM) details for selected examples.

Take `COc1cccc(/C=C/c2nc3sccn3c2C(=O)Nc2nc(C(F)(F)F)cs2)c1OCC(C)C` [Example 6, 6-{(E)-2-[2-(Isobutoxy)-3-methoxyphenyl]vinyl}-N-[4-(trifluoromethyl)-1,3-thiazol-2-yl]imidazo[2,1-b][1,3]thiazole-5-carboxamide]: the IC50 (in general, the concentration that inhibits the measured activity by half) was in the range of 250 to 1000 nM. For the same compound, for the setting “compound at 1.0 μM”, the inhibition – broadly, the change of the read-out against control, counted positive when it falls – at 1 µM stood at 93%. Besides, where the note is “compound at 10.0 μM”, the inhibition at 10 µM came out at 98.8%.
Take “2-{(E)-2-[3-(Difluoromethoxy)-2-(2,2-dimethylpropoxy)phenyl]vinyl}-N-[4-(trifluoro-methyl)-1,3-thiazol-2-yl]imidazo[1,2-c]pyridine-3-carboxamide [Example 38]”: the “Percentage inhibition at 1.0 μM” value (compound at 1.0 μM) is given as 87.67%. In addition, the “Percentage inhibition at 10.0 μM” value (compound at 10.0 μM) is 97.11%.
Take `CC(C)(C)COc1c(/C=C/c2nc3sccn3c2C(=O)Nc2nc3ccc(F)cc3s2)cccc1OC(F)F` [Example 29, 6-{(E)-2-[3-(Difluoromethoxy)-2-(2,2-dimethylpropoxy)phenyl]vinyl}-N-(6-fluoro-1,3-benzothiazol-2-yl)imidazo[2,1-b][1,3]thiazole-5-carboxamide]: the inhibition at 1 µM (compound at 1.0 μM) worked out at 24%. Also, the inhibition at 10 µM (compound at 10.0 μM) is 15.3%.
For `O=C(Nc1nc(C(F)(F)F)cs1)c1c(/C=C/c2cccc(O)c2O)nc2sccn12` [Example 19, 6-[(E)-2-(2,3-Dihydroxyphenyl)vinyl]-N-[4-(trifluoromethyl)-1,3-thiazol-2-yl]imidazo[2,1-b][1,3]thiazole-5-carboxamide] the same measures were 13.9% and 4.88%.
As to `CC(C)(C)COc1c(/C=C/c2nc3sccn3c2C(=O)Nc2nc(C3CC3)cs2)cccc1OC(F)F` [Example 23, 6-{(E)-2-[2-(2,2-Dimethylpropoxy)-3-(difluoromethoxy)phenyl]vinyl}-N-(4-cyclo-propyl-1,3-thiazol-2-yl)imidazo[2,1-b][1,3]thiazole-5-carboxamide], the IC50 is < 100 nM. Further, the inhibition at 1 µM (compound at 1.0 μM) is 93.2%. Further, under “compound at 10.0 μM”, the inhibition at 10 µM is 90%.
For `O=C(Nc1nc(C(F)(F)F)cs1)c1c(/C=C/c2cccc(OC(F)F)c2OCC2CCC2)nc2sccn12` [Example 36, 6-{(E)-2-[2-(Cyclobutylmethoxy)-3-(difluoromethoxy)phenyl]vinyl}-N-[4-(trifluoro-methyl)-1,3-thiazol-2-yl]imidazo[2,1-b][1,3]thiazole-5-carboxamide] the same measures were 100 to 250 nM, 93.7% and 97.7%.
For `CC(C)(C)COc1c(/C=C/c2nc3ccccn3c2C(=O)Nc2nc(C3CC3)cs2)cccc1OC(F)F` [Example 39, 2-{(E)-2-[2-(2,2-Dimethylpropoxy)-3-(difluoromethoxy)phenyl]vinyl}-N-(4-cyclo-propyl-1,3-thiazol-2-yl)imidazo[1,2-a]pyridine-3-carboxamide], where the note is “compound at 1.0 μM”, the inhibition at 1 µM was 76.1%. For the same compound, the inhibition at 10 µM (compound at 10.0 μM) worked out at 58.7%.
For `CC(C)CCOc1c(/C=C/c2nc3sccn3c2C(=O)Nc2nc(C(F)(F)F)cs2)cccc1OC(F)F` [Example 32, 6-{(E)-2-[3-(Difluoromethoxy)-2-[3-methylbutoxy)phenyl]vinyl}-N-[4-(trifluoromethyl)-1,3-thiazol-2-yl]imidazo[2,1-b][1,3]thiazole-5-carboxamide] the same measures were 63.7% and 96.6%.
As for `COc1cccc(/C=C/c2nc3sccn3c2C(=O)Nc2nc(C(F)(F)F)cs2)c1OCC(C)(C)C` [Example 7, 6-{(E)-2-[2-(2,2-Dimethylpropoxy)-3-methoxyphenyl]vinyl}-N-[4-(trifluoromethyl)-1,3-thiazol-2-yl]imidazo[2,1-b][1,3]thiazole-5-carboxamide], the half-maximal inhibitory concentration (IC50) was < 100 nM. The inhibition at 1 µM (compound at 1.0 μM) was 95.5%. Further, the inhibition at 10 µM (compound at 10.0 μM) turned out to be 99.5%.
